Assay results as given in patent US20090170762A1, “Treatment of Diabetes Related Obesity” (UUTech Limited, priority 2005, published 2009).
Ends that are not written are not given here.

Legend:
ob/ob mice = assay: Acute antihyperglycaemic and insulin releasing activity with glucose and native GIP in ob/ob mice; type: in vivo, mouse; settings: 25 nmol/kg i.p. with GIP and glucose 18 mmol/kg, vs native GIP
Method: Animals. Obese diabetic (ob/ob) mice derived from the colony maintained at Aston University, UK (Bailey C. J. et al., 1982, Int. J. Obes. 6:11-21) were used at 14-18 weeks of age. Animals were age-matched, divided into groups and housed individually in an air-conditioned room at 22±2° C. with a 12 hour light: 12 hour dark cycle (08:00-20:00 hr). Drinking water and a standard rodent maintenance diet (Trouw Nutrition, Cheshire, UK) were freely available. All animal experiments were carried out in accordance with the UK Animals (Scientific Procedures) Act 1986.
Biochemical analysis. Plasma glucose was assayed by an automated glucose oxidase procedure ([…]) using a Beckman Glucose Analyzer II (Beckman Instruments, Galway, Ireland). Plasma insulin was assayed by radioimmunoassay.
Methods. […] All test solutions were administered in a final volume of 5 ml/kg body weight. Blood samples were collected from the cut tip of the tail vein of conscious mice into chilled fluoride/heparin coated glucose microcentrifuge tubes (Sarstedt, Numbrecht, Germany) immediately prior to injection and at 15, 30 and 60 minutes post injection. Blood samples were immediately centrifuged using a Beckmnan microcentrifuge (Beckman Instruments, High Wycombe, Buckinghamshire, UK) for 30 seconds at 13,000×g. Plasma glucose was assayed using a Beckman Glucose Analyzer n (Beckman Instruments, High Wycombe, Buckinghamshire, UK) (Stevens, J. F., 1971, Clin. Chim. Acta 32:199-201) and plasma insulin was determined by RIA (Flatt, P. R. and Bailey, C. J., 1981, Diabetologia 5:573-577). All animal studies were carried out in accordance with the UK Animals (Scientific Procedures) Act 1986.

Swiss TO mice = assay: Daily (Pro3)GIP for 90 days in normal (TO) mice fed high fat, cafeteria, high carbohydrate or normal diets; type: in vivo, mouse; settings: for Glycated Hemoglobin (%): 25 nmol/kg bw/day
Method: Young obese diabetic (ob/ob) mice derived from the colony maintained at Aston University, UK (Bailey, C. J. et al., 1982, Int. J. Obes. 6:11-21) were used at 5-7 weeks of age. Normal lean control mice from the same colony were used in comparative experiments (See Example 6, below). Animals were age-matched, divided into groups and housed individually in an air-conditioned room at 22±2° C. with a 12 hours light:12 hours dark cycle (08:00-20:00 hours). Drinking water and a standard rodent maintenance diet (Trouw Nutrition, Cheshire, UK) were freely available. In a separate experiment, Swiss Tylers Original (TO) mice purchased from Harlan Ltd. (Bicester, UK) were used at 5-7 weeks of age. Animals were housed as for ob/ob mice and given drinking water ad libitum. Normal TO mice were allowed free access to fed high fat diet (45% fat, 20% protein, 35% carbohydrate, 26.15 MJ/kg), high carbohydrate diet (10% fat, 20% protein, 70% carbohydrate, 18.80 MJ/kg) (Special Diets Service, Witham, Essex, UK), cafeteria diet (corresponding to approximately 33% fat, 19% protein, 48% carbohydrate, 16.39 MJ/kg) or normal rodent maintenance diet (10% fat, 30% protein, 60% carbohydrate; 14.2 MJ/kg, Trouw Nutrition, Cheshire, UK). The cafeteria diet comprised 6 daily rotations of 2 palatable food items per day (2 from: tuna, peanut butter, crisps, chocolate biscuits, madera cake, chocolate, luncheon meat, sausages, corned beef, cheese, marzipan). All animal experiments were carried out in accordance with the UK Animals (Scientific Procedures) Act 1986.
Food intake and body weight were recorded daily while plasma glucose and insulin concentrations were monitored at intervals of 3-6 days. Whole blood for the measurement of glycated hemoglobin was taken on day 60. In addition, plasma samples for measurement of cholesterol, circulating triglycerides, HDL-cholesterol (HDL-C) and LDL-cholesterol (LDL-C) were taken on day 60. […] Mice fasted for 18 hours were used to examine the metabolic response to 15 minutes feeding on day 60. In a separate series, pancreatic tissues were excised at the end of the 60-day treatment period and processed for immunohistochemistry or measurement of insulin following extraction with 5 ml/g of ice-cold acid ethanol (750 ml ethanol, 235 ml water, 15 ml concentrated HCl). Blood samples taken from the cut tip of the tail vein of conscious mice at the times indicated in the Figures were immediately centrifuged using a Beckman microcentrifuge (Beckman instruments, UK) for 30 seconds at 13,000×g. The resulting plasma was then aliquoted into fresh Eppendorf tubes and stored at −20° C. prior to glucose and insulin determinations. Normal control mice from the same genetic background were used for comparative purposes. […] Body weights were recorded daily and blood for determination of glycated hemoglobin was collected at end of study period.
Plasma glucose was assayed by an automated glucose oxidase procedure (Stevens, J. F., 1971, Clin. Chem. Acta 32:199-201) using a Beckman Glucose Analyzer II (Beckman Instruments, Galway, Ireland). Plasma and pancreatic insulin were assayed by a modified dextran-coated charcoal radioimmunoassay (Flatt, P. R., Bailey, C. J., 1981, Diabetologia 20:573-577). Plasma triglyceride and cholesterol levels were measured using a Hitachi Automatic Analyser 912 (Boehringer Mannheim, Germany). Glycated hemoglobin was determined using a commercially available kit purchased from Chirus Ltd. (Watford, UK).
Normal mice were fed the different diets indicated above ad libitum from 4-5 weeks of age. Treated groups of mice received intraperitoneal injection of ProGIP (25 nmoles/kg body weight) each day.

DPP-IV = DPP-IV (Homo sapiens, UniProt P27487); assay: Degradation of GIP and Glu3-substituted GIP analogs by DPP-IV (HPLC); type: in vitro ADME
Sequence of DPP-IV (P27487 whole entry, species assumed): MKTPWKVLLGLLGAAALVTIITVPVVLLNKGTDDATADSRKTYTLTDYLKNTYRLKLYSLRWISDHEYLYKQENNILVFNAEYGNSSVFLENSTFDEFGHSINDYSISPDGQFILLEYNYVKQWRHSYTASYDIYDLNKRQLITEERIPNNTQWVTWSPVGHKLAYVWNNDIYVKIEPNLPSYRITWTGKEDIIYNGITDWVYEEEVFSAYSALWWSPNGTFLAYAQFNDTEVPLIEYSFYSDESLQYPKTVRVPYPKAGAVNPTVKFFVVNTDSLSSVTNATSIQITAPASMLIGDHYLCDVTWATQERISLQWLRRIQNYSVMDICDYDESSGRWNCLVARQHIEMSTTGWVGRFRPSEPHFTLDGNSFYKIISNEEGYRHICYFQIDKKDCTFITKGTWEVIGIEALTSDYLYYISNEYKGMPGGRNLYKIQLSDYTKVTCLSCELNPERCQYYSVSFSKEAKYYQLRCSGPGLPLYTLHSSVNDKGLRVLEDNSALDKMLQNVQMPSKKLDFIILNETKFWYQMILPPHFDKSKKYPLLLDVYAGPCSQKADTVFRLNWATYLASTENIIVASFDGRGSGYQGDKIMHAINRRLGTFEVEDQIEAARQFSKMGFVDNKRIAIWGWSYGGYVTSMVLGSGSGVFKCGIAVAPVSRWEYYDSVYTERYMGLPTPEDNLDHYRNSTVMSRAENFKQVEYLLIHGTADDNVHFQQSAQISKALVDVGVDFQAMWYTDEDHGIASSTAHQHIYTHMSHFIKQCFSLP

[1] = normal mice fed high fat or cafeteria diets, 90 days

## YAPGTFISDYSIAMDKIHQQDFVNWLLAQKGKKNDWKHNITQ [(Pro^3)GIP]
ob/ob mice
  plasma glucose and insulin profiles when administered together with native GIP: significantly inhibited the action of GIP
Swiss TO mice; Cafeteria diet, 90 days
  Glycated Hemoglobin (%): 4.0 ± 0.32 %
Swiss TO mice; High Carbohydrate diet, 90 days
  Glycated Hemoglobin (%): 4.3 ± 0.12%
Swiss TO mice; High Fat diet, 90 days
  Glycated Hemoglobin (%): 4.0 ± 0.21 %
Swiss TO mice; Normal diet, 90 days
  Glycated Hemoglobin (%): 3.9 ± 0.14%
Swiss TO mice; high carbohydrate or normal diets
  body weight and glycated hemoglobin (parameters measured): did not affect
Swiss TO mice; high fat diet, lesser extent cafeteria diet
  body weight gain induced by excessive energy intake: counters body weight gain
Swiss TO mice; [1]
  decrease in body weight: up to 20%
  decrease in glycated hemoglobin: greater than 1%
DPP-IV; DPP-IV enzyme (5 mU) in buffer, pH 7.8, incubation with DPP-IV, unit not given (time points in hrs), read-out: Estimated Half-Life (converted)
  half-life at 2 μm: > 8 h
DPP-IV; incubation with DPP-IV (5 mU), 37°C, pH 7.8, 0 hrs
  Intact Peptide Remaining (%) 0 hrs.: 100%
DPP-IV; isolated DPP-IV enzyme (5 mU), incubation with DPP-IV (5 mU), 37°C, pH 7.8, 2 hrs, read-out: Intact Peptide Remaining (%) 2 hrs.
  remaining at 2 h, 2 μm: 100%
DPP-IV; isolated DPP-IV enzyme (5 mU), incubation with DPP-IV (5 mU), 37°C, pH 7.8, 4 hrs, read-out: Intact Peptide Remaining (%) 4 hrs.
  remaining at 4 h, 2 μm: 100%
DPP-IV; isolated DPP-IV enzyme (5 mU), incubation with DPP-IV (5 mU), 37°C, pH 7.8, 8 hrs, read-out: Intact Peptide Remaining (%) 8 hrs.
  remaining at 8 h, 2 μm: 100%
DPP-IV; words, up to 8 hours incubation
  resistance to DPP-IV degradation: completely resistant
